Measurements published in patent publication US12115209B2, “ROMO1-derived antimicrobial peptides including lysine substitution and variants thereof” (KOREA UNIVERSITY RESEARCH AND BUSINESS FOUNDATION, priority 2019, dated 2024).
No end group written: not given here.

Assays:
[1] = system: Human vascular endothelial cells (HUVECs); test: Toxicity to human vascular endothelial cells (MTT); format: cell-based; details: 0 μg/ml to 300 μg/ml
Experimental: PBS was used as a control.
The HUMEC medium was replaced with fresh medium, and KU-5878, melittin or magainin 2 were dispensed at various concentrations (0 μg/ml to 300 μg/ml). Then, each well was treated with 100 μl of MTT reagent and incubated at 37° C. for 2 hours. Then, the medium and the peptide were carefully removed so as not to separate the cells, and 100 μl of DMSO (dimethyl sulfoxide) was added to each well, and the absorbance at a wavelength of 570 nm was measured using a spectrophotometer. Relative cell viability was calculated as a percentage of the viability of untreated control cells.

[2] = system: mouse red blood cells; format: cell-based
Experimental: Red blood cells were diluted with PBS, centrifuged 3 times at 900 g for 10 minutes, and washed. 100 μl of the diluted red blood cell solution (10% v/v PBS) was dispensed into each well of a 96-well microplate, and KU-5878, KU-5878-K4, KU-5878-K4-D, melittin, magainin 2 or daptomycin was added to each well which was then filled with PBS to 200 μl, followed by reaction by incubation at 37° C. for 1 hour. Then, the supernatant of the reaction solution was separated, and the absorbance at a wavelength of 550 nm was measured using a spectrophotometer. As control, PBS and 0.1% Triton X-100 (Triton X-100) solution were used.
Based on the results of measurement of the absorbance, the degree of red blood cell destruction was calculated according to Equation 1 below, and the results of the calculation are shown in FIG. 6. % The intact RBC=100(%)−[(absorbance of peptide-treated red blood cell solution−absorbance of PBS-treated red blood cell solution)/(absorbance of Triton X-100-treated red blood cell solution−absorbance of PBS-treated red blood cell solution)×100(%)] [Equation 1]

[3] = system: Staphylococcus aureus, Pseudomonas aeruginosa, Klebsiella pneumoniae and Acinetobacter baumannii; test: Survival rate of mice injected with gram-positive or gram-negative bacteria; format: in vivo, mice (C57BL/6); details: mice injected with gram-positive or gram-negative bacteria (FIG. 3)
Text: Following Example 2-2, in order to evaluate the antibacterial activity of the KU-5878 peptide in vivo, Staphylococcus aureus as gram-positive bacteria, Pseudomonas aeruginosa, Klebsiella pneumoniae and Acinetobacter baumannii as gram-negative bacteria, and multidrug-resistant Pseudomonas aeruginosa, methicillin-resistant Staphylococcus aureus, multidrug-resistant Klebsiella pneumoniae and multidrug-resistant Acinetobacter baumannii as multidrug-resistant bacteria were selected, and the following experiment was performed.
The experimental method is as described in Example 2-2 above. For a positive group, each type of the bacteria was injected into mice, and after 24 hours, 30 mg/kg of imipenem, a carbapenem-based antibiotic, was injected intraperitoneally (IP), and then the same amount of imipenem was administered intraperitoneally a total of 4 times at 12-hour intervals. The survival rates of each control group and the experimental group were measured at 24-hour intervals.

[4] = system: Bacillus subtilis (ATCC 6633); format: cell-based; details: ATCC 6633, 4 h
Experimental: (§1) Specifically, each type of bacteria was cultured in 3% (w/v) TSB (tryptic soy broth) liquid medium at 37° C. and 200 rpm for 4 hours, and then further cultured under the same conditions for 3 hours to a concentration of 5×10^6 CFU/ml. Strain solutions were prepared by diluting each of the further cultured strains with SP buffer to a final concentration of 2×10^5 CFU/ml.
(§2) Then, the KU-5878 peptide at varying concentrations (0 μg/ml to 300 μg/ml) was dispensed into each well of a 96-well microplate, and 100 μl (1×10^5 CFU/ml) of each of the prepared strain solutions was added thereto, mixed therewith, and allowed to react with the peptide in an incubator at 37° C. for 1 hour.
(§3) In addition, 10 μl of each reaction solution of the peptide and the strain was plated on the TS agar plate at a constant size, and incubated in an incubator at 37° C. for 18 hours, and then colony formation on the plate was checked. The minimum bactericidal concentration was defined as the minimum concentration of the peptide at which no colony was formed, and the experimental results are shown in Table 2 below.

[5] = system: Enterococcus faecium (ATCC 19434); format: cell-based; details: ATCC 19434, 4 h
Experimental: as §1, §2, §3

[6] = system: Enterococcus faecalis (ATCC 19433); format: cell-based; details: ATCC 19433, 4 h
Experimental: as §1, §2, §3

[7] = system: Escherichia coli (ATCC 25922); format: cell-based; details: ATCC 25922, 4 h
Experimental: as §1, §2, §3

[8] = system: Klebsiella pneumoniae (ATCC 13883); format: cell-based; details: ATCC 13883, 4 h
Experimental: as §1, §2, §3

[9] = system: Acinetobacter baumannii (ATCC 19606); format: cell-based; details: ATCC 19606, 4 h
Experimental: as §1, §2, §3

[10] = system: Enterobacter aerogenes (ATCC 13048); format: cell-based; details: ATCC 13048, 4 h
Experimental: as §1, §2, §3

[11] = system: Streptomyces sindenensis (ATCC 12392); format: cell-based; details: ATCC 12392, 4 h
Experimental: as §1, §2, §3

[12] = system: Methicillin-resistant Staphylococcus aureus (MRSA, ATCC 33591); test: Minimum bactericidal concentration (MBC) assay; format: cell-based; details: Tables 11-21, no unit printed
Summary of the method: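 Peptide at 0 to 300 μg/ml reacted 1 h at 37 °C with 1×10^5 CFU/ml bacteria in SP buffer (10 mM sodium phosphate, 1% TSB), bacteria pre-grown in 3% TSB. Aliquots then spread on TS agar and checked for colonies after 18 h at 37 °C.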

[13] = Toxicity in vivo (survival and weight after intravenous injection); parameters: species or system mouse (C57BL/6); details: 100 mg/kg intravenous
Experimental: At this time, the maximum volume of the injection dose was 150 μl.

KTMMQSGGTFGTFMAIGMGIR [KU-5878]
toxicity to the HUVECs (relative cell viability, MTT) [1]: very low toxicity | hemolysis of red blood cells [2]: little hemolysis even at a high concentration | survival rate [3]: 60% | MBC value [4]: 90 µg/mL | MBC value [5]: 85 µg/mL | MBC value [6]: 85 µg/mL | MBC value [7]: 85 µg/mL | MBC value [8]: 100 µg/mL | MBC value [9]: 100 µg/mL | MBC value [10]: 90 µg/mL | MBC value [11]: 95 µg/mL | MBC MRSA [12]: 110 µg/mL | MBC MRSA ([12]; listed as 5878): 100 µg/mL | effect on the weight of the mice ([13]; 24-hour intervals for 12 days): no effect on the weight | survival of mice after injection ([13]; observed 12 days): all survived
